Laboratory results taken from US20220064238A1, “Methods And Compositions For Modifying Transcription Factor Activity by Targeting The Human Mediator Complex Using Cell Penetrating Memetic Peptides And Methods of Treating Cancer Using The Same” (The Regents of the University of Colorado, a body corporate, priority 2020, published 2022).
Bridge positions count the residues as written; N and C are the ends. Square brackets hold non-standard residues; d marks the D form. Peptide text beside a SMILES is read from it. PEG6 = NCCOCCOCCOCCOCCOCCOCCC(=O)O; R8 = C=CCCCCCC[C@@](C)(N)C(=O)O; S5 = C=CCCC[C@](C)(N)C(=O)O

Target: T1, p53-activated transcription (Gal4-p53AD, Mediator) (Homo sapiens, UniProt Q9NVC6)
T1 construct: made in house
Test: In vitro transcription on naked DNA templates, p53-activated (+Gal4-p53AD)
Assay type: biochemical
Details: 500 nM peptide
Excerpt: To screen peptides for the ability to selectively block p53-dependent transcription, we required an assay that enabled p53-dependent activation but that could also support basal (i.e. activator-independent) transcription. The present inventors had previously established an in vitro transcription assay (using highly purified human factors (FIG. 1A). A key feature of this assay was that both activated and basal transcription could be reconstituted on naked DNA templates (i.e. DNA templates not assembled into chromatin). To adapt this assay for purposes of measuring basal vs. p53-activated transcription, we generated templates with Gal4 DNA binding sites upstream of the adenovirus major late promoter sequence (FIG. 5A, B). Upon titration of a Gal4 DNA Binding Domain (DBD)-p53 Activation Domain (AD; residues 1-70) fusion protein into this system, we observed pol II-dependent transcription that was dependent on p53AD and Mediator (FIG. 5C). Reactions containing Gal4-p53AD generally produced about two- to four-fold more transcripts compared to reactions with no activator (FIG. 5C). Because experiments without Gal4-p53AD produced a low level of “basal” transcription that could be quantitated, this system allowed assessment of both p53-activated and basal transcription. […]

CC[C@H](C)[C@H](NC(=O)[C@H](CC(=O)O)NC(=O)[C@H](CC(=O)O)NC(=O)[C@@H]1CCCN1C(=O)[C@H](CO)NC(=O)[C@H](CC(C)C)NC(=O)CCOCCOCCOCCOCCOCCOCCNC(=O)[C@H](CCCNC(=N)N)NC(=O)[C@H](CCCNC(=N)N)NC(=O)[C@]1(C)CCCC=CCCCCCC[C@@](C)(NC(=O)[C@H](Cc2ccccc2)NC(=O)[C@H](CCCNC(=N)N)NC(=O)[C@H](CCC(=O)O)NC(=O)[C@H](CCC(N)=O)NC(=O)[C@H](CO)NC(=O)[C@H](CCCNC(=N)N)NC(C)=O)C(=O)N[C@@H](CC(=O)O)C(=O)N[C@@H](CC(C)C)C(=O)N[C@@H](Cc2c[nH]c3ccccc23)C(=O)N[C@@H](CCCCN)C(=O)N[C@@H](CCCNC(=N)N)C(=O)N[C@@H](CC(C)C)C(=O)N1)C(=O)N[C@@H](CCC(=O)O)C(=O)N[C@@H](CCC(N)=O)C(=O)N[C@@H](Cc1c[nH]c2ccccc12)C(=O)N[C@@H](Cc1ccccc1)C(=O)N[C@H](C(=O)N[C@@H](CCC(=O)O)C(=O)N[C@@H](CC(=O)O)C(N)=O)[C@@H](C)O [bivalent peptide] (Ac-RSQERF[R8]DLWKRL[S5]RR[PEG6]LSPDDIEQWFTED-NH2; staple 7-14; N-terminus assumed)
inhibition of p53-activated transcription at 500 nM: inhibited
